# Experimental data: patent US6440387B1, “Methods for determining risk of Alzheimer's disease” (Children's Medical Center Corporation, priority 1998, dated 2002)
# Key:
# Aβ levels in the brain = assay: Dietary cholesterol and Aβ levels in rat cerebral cortex; assay type: in vivo; conditions: 20 month old rats, high cholesterol diet (5% cholesterol) vs low cholesterol diet (0.1% cholesterol), 10 weeks
# Protocol: These experiments were performed on 20 month old rats. The rats were fed a low cholesterol diet (0.1% cholesterol) or a high cholesterol diet (5% cholesterol). After 10 weeks, the animals were sacrificed and the cortex was removed for measurement of Aβ levels. Aβ was assayed by immunoprecipitating cortical homogenates with the Aβ antibody B12, followed by Western blotting with the commercially available Aβ monoclonal antibody 4G8.
# [1] = system: Aβ production by human cortical neurons; assay: Effect of HMG CoA reductase inhibitors on Aβ levels in human cortical neuronal cultures; assay type: cell-based; conditions: 100 μM, 48 hours
# Protocol: Busciglio et al., (1993) Proc. Nat. Acad. Sci. 90, 2092-2096, described the production of Aβ by human cortical neurons in culture . To determine whether cholesterol can affect the production of Aβ, primary human brain cultures were established from the cortex of 16-20 week fetal abortuses, and the neurons incubated in the absence or presence of very low density lipoprotein (VLDL), low density lipoprotein (LDL) or high density lipoprotein (HDL) particles isolated from human plasma. These lipoprotein particles are the physiological vehicles for the transport of cholesterol to cells. The effects of the different lipoprotein particles on the levels of Aβ in the human cortical cultures was determined. The human cortical cultures were maintained in serum-free Dulbecco's Modified Eagle's Medium (DMEM) with N2 supplements (a serum-free supplement that supports neuronal viability). The medium was then changed to the same medium (controls) or medium supplemented with VLDL, LDL, or HDL particles. After incubation for 48-72 hours, Aβ was measured by immunoprecipitation of the culture medium with a polyclonal antibody to Aβ (B12), followed by Western blotting with a mohoclonal antibody to Aβ (6E10). […] The bands corresponding to the 40 and 42 amino acid form of Aβ were analyzed quantitatively using a computer software program. […]
Compound,increase in Aβ levels in rat cerebral cortex (Aβ levels in the brain),levels of Aβ relative to controls [1]
CC(C)CCC[C@@H](C)[C@H]1CC[C@H]2[C@@H]3CC=C4C[C@@H](O)CC[C@]4(C)[C@H]3CC[C@]12C [cholesterol],about 50%,–
CC[C@H](C)C(=O)O[C@H]1C[C@@H](C)C=C2C=C[C@H](C)[C@H](CC[C@@H]3C[C@@H](O)CC(=O)O3)[C@H]21 [lovastatin],–,significantly decreased levels of Aβ
